We go through 2 molecules from PMC4551947 (Nucleic Acids Research, 2015).

Usually stoichiometry N stands for a count of units in the complex or per binding partner.

The target of data set [1] is T1, NTD (isolated N-terminal SPOUT domain of EcTrmJ) (Escherichia coli, UniProt P0AE01).
T1 sequence (P0AE01 1-170): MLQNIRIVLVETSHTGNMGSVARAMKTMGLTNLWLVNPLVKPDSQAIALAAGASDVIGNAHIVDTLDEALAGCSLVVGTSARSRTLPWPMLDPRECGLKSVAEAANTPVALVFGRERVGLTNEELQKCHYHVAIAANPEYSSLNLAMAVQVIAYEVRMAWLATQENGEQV
The experiment in a line: isothermal titration calorimetry. The following applies: 25 °C, 20 mM Tris-HCl pH 7.5, 100 mM NaCl, 10 mM MgCl2. It counts as binding. (ITC needs no label: the signal is the heat of the interaction.)

The data set “crystal structure” deals with the molecule itself. The experiment in a line: crystal structure.

Regarding `Nc1ncnc2c1ncn2[C@@H]1O[C@H](CSCC[C@H](N)C(=O)O)[C@@H](O)[C@H]1O` [SAH], the KD entry in data set [1] is “NTD alone could bind SAH as effectively as full-length EcTrmJ”.

B1: Escherichia coli TrmJ (EcTrmJ), tRNA Xm32 methyltransferase, full-length (enzyme, Escherichia coli K-12 MG1655, UniProt P0AE01 1-246, looked up)
chain: MLQNIRIVLVETSHTGNMGSVARAMKTMGLTNLWLVNPLVKPDSQAIALAAGASDVIGNAHIVDTLDEALAGCSLVVGTSARSRTLPWPMLDPRECGLKSVAEAANTPVALVFGRERVGLTNEELQKCHYHVAIAANPEYSSLNLAMAVQVIAYEVRMAWLATQENGEQVEHEETPYPLVDDLERFYGHLEQTLLATGFIRENHPGQVMNKLRRLFTRARPESQELNILRGILASIEQQNKGNKAE
Take B1: in the data set “crystal structure”, the “stoichiometry N” value turned out to be 2.
